Structures are written as SMILES.

The first assay has as its target T1, Type-1 angiotensin II receptor (Oryctolagus cuniculus) (UniProt P34976).
T1 sequence (whole entry): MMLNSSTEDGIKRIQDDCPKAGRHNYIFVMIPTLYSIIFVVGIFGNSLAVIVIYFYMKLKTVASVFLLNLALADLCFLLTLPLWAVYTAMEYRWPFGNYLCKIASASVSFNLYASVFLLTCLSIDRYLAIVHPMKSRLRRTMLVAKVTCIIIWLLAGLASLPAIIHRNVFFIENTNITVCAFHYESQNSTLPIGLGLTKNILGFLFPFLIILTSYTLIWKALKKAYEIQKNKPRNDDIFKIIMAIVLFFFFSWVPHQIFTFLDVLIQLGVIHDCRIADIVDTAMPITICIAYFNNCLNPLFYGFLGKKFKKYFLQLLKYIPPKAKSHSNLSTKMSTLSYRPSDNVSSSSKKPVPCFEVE
The assay can be described thus: In vitro antagonism of Angiotensin II receptor, type 1 in isolated rabbit thoracic aorta. It is filed as functional, tissue-based.
Conditions: not given
For `CCCCCC[C@H](C(=O)N1C[C@@H](Oc2ccc(CC(=O)O)cc2)C[C@@H]1C(=O)O)n1cnc(NC(=O)c2ccccc2S(=O)(=O)O)c1`, the Kb was determined as 156 nM.

`CCCCCC[C@H](C(=O)N1C[C@@H](Oc2ccc(CC(=O)O)cc2)C[C@H]1C(=O)O)n1cnc(NC(=O)c2ccccc2S(=O)(=O)O)c1` showed a Kb of 0.12 nM.

On to `CCCCCC[C@@H](C(=O)N1C[C@@H](Oc2ccc(CC(=O)O)cc2)C[C@@H]1C(=O)O)n1cnc(NC(=O)c2ccccc2S(=O)(=O)O)c1`, for which the Kb is 761 nM.

Compound `CCCCCC[C@@H](C(=O)N1C[C@@H](Oc2ccc(CC(=O)O)cc2)C[C@H]1C(=O)O)n1cnc(NC(=O)c2ccccc2S(=O)(=O)O)c1` registered a Kb of 4.5 nM.

For the compound `CCCCCC[C@H](C(=O)N1C[C@H](Oc2ccc(CC(=O)O)cc2)C[C@@H]1C(=O)O)n1cnc(NC(=O)c2ccccc2S(=O)(=O)O)c1`, the Kb came out at 191 nM.

Take `CCCCCC[C@@H](C(=O)N1C[C@H](Oc2ccc(CC(=O)O)cc2)C[C@@H]1C(=O)O)n1cnc(NC(=O)c2ccccc2S(=O)(=O)O)c1`: the Kb was 489 nM.

Regarding `CCCCCC[C@H](C(=O)N1C[C@H](Oc2ccc(CC(=O)O)cc2)C[C@H]1C(=O)O)n1cnc(NC(=O)c2ccccc2S(=O)(=O)O)c1`, the Kb amounted to 503 nM.

Turning to `CCCCCC[C@@H](C(=O)N1C[C@H](Oc2ccc(CC(=O)O)cc2)C[C@H]1C(=O)O)n1cnc(NC(=O)c2ccccc2S(=O)(=O)O)c1`, the Kb is 555 nM.

The species entered for the next assay is Oryctolagus cuniculus. Kind of assay: pA2 value determined by their ability to block AngII induced contractile responses in rabbit aorta strips. To be noted: read-out: pA2 (converted). It is filed as functional.
Take `CCCCCCC(C(=O)O)n1cnc(NC(=O)c2ccccc2C(=O)O)c1` (stereo unspecified): the Kb was 100 nM.

As to `CCCCCCC(C(=O)O)n1cnc(NC(=O)c2cccc(O)c2C(=O)O)c1` (stereo unspecified), the Kb is 100 nM.

Consider `CCCCCCC(C(=O)O)n1cnc(NC(=O)c2ccccc2C2N=NN=N2)c1` (stereo unspecified), for which the Kb is 100 nM.

The record behind these values is ChEMBL document CHEMBL1127875 (Bioorg Med Chem Lett, 1994).
